{"source": "patent US8574563B2", "about": "(Bristol-Myers Squibb Company, priority 2006, dated 2013)", "tested_on": "HCV 1b-377-neo replicon cells", "test": "HCV replicon assay, HCV 1b-377-neo replicon cells (1b FRET)", "type": "cell-based, Hepatitis C virus genotype 1b", "conditions": "Hepatitis C virus, HCV 1b-377-neo replicon cells; HCV 1b genotype; read-out: EC50 range against HCV 1b (Table 2, Range)", "how_it_was_run": "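Compounds were tested in genotype 1b subgenomic replicon cells carrying a neomycin marker, alongside a matched replicon line with an NS5A Y2065H substitution that confers resistance to a reference NS5A inhibitor.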", "data": [{"smiles": "COCC[C@H](NC(=O)OC)C(=O)N1CCC[C@H]1c1ncc(-c2ccc(-c3ccc(-c4cnc([C@@H]5CCCN5C(=O)[C@@H](NC(=O)OC)[C@@H](C)OC)[nH]4)cc3)cc2)[nH]1", "note": "[cj-121, methyl ((1S,2R)-2-methoxy-1-(((2S)-2-(5-(4′-(2-((2S)-1-(N-(methoxycarbonyl)-O-methyl-L-homoseryl)-2-pyrrolidinyl)-1H-imidazol-5-yl)-4-biphenylyl)-1H-imidazol-2-yl)-1-pyrrolidinyl)carbonyl)propyl)carbamate]", "values": [{"measurement": "EC50", "result": "0.001 to 0.999", "unit": "nM"}]}, {"smiles": "COCC[C@H](NC(=O)OC)C(=O)N1CCC[C@H]1c1ncc(-c2ccc(-c3ccc(-c4cnc([C@@H]5CCCN5C(=O)[C@H]5CCC[C@@H]5NC(=O)OC)[nH]4)cc3)cc2)[nH]1", "note": "[cj-122, methyl ((1S,2S)-2-(((2S)-2-(5-(4′-(2-((2S)-1-(N-(methoxycarbonyl)-O-methyl-L-homoseryl)-2-pyrrolidinyl)-1H-imidazol-5-yl)-4-biphenylyl)-1H-imidazol-2-yl)-1-pyrrolidinyl)carbonyl)cyclopentyl)carbamate]", "values": [{"measurement": "EC50", "result": "0.001 to 0.999", "unit": "nM"}]}, {"smiles": "COC(=O)N[C@@H](Cc1c[nH]nn1)C(=O)N1CCC[C@H]1c1ncc(-c2ccc(-c3ccc(-c4cnc([C@@H]5CCCN5C(=O)[C@H](Cc5c[nH]nn5)NC(=O)OC)[nH]4)cc3)cc2)[nH]1", "note": "[cj-125, methyl ((1S)-2-((2S)-2-(5-(4′-(2-((2S)-1-((2S)-2-((methoxycarbonyl)amino)-3-(1H-1,2,3-triazol-4-yl)propanoyl)-2-pyrrolidinyl)-1H-imidazol-5-yl)-4-biphenylyl)-1H-imidazol-2-yl)-1-pyrrolidinyl)-2-oxo-1-(1H-1,2,3-triazol-4-ylmethyl)ethyl)carbamate]", "values": [{"measurement": "EC50", "result": "1 to 99", "unit": "nM"}]}, {"smiles": "COC(=O)N[C@@H](C)CC(=O)N1CCC[C@H]1c1ncc(-c2ccc(-c3ccc(-c4cnc([C@@H]5CCCN5C(=O)C[C@H](C)NC(=O)OC)[nH]4)cc3)cc2)[nH]1", "note": "[cj-126, dimethyl (4,4′-biphenyldiylbis(1H-imidazole-5,2-diyl(2S)-2,1-pyrrolidinediyl((2S)-4-oxo-4,2-butanediyl)))biscarbamate]", "values": [{"measurement": "EC50", "result": "0.001 to 0.999", "unit": "nM"}]}, {"smiles": "COC(=O)N[C@H](CC(=O)N1CCC[C@H]1c1ncc(-c2ccc(-c3ccc(-c4cnc([C@@H]5CCCN5C(=O)C[C@@H](NC(=O)OC)C(C)C)[nH]4)cc3)cc2)[nH]1)C(C)C", "note": "[cj-127, dimethyl (4,4′-biphenyldiylbis(1H-imidazole-5,2-diyl(2S)-2,1-pyrrolidinediyl((3R)-4-methyl-1-oxo-1,3-pentanediyl)))biscarbamate]", "values": [{"measurement": "EC50", "result": "1 to 99", "unit": "nM"}]}, {"smiles": "COC(=O)N[C@H](CC(=O)N1CCC[C@H]1c1ncc(-c2ccc(-c3ccc(-c4cnc([C@@H]5CCCN5C(=O)C[C@@H](NC(=O)OC)c5ccccc5)[nH]4)cc3)cc2)[nH]1)c1ccccc1", "note": "[cj-128, methyl ((1R)-3-((2S)-2-(5-(4′-(2-(1-((3R)-3-((methoxycarbonyl)amino)-3-phenylpropanoyl)-2-pyrrolidinyl)-1H-imidazol-5-yl)-4-biphenylyl)-1H-imidazol-2-yl)-1-pyrrolidinyl)-3-oxo-1-phenylpropyl)carbamate]", "values": [{"measurement": "EC50", "result": "0.001 to 0.999", "unit": "nM"}]}, {"smiles": "COC(=O)N[C@@H](CC(=O)N1CCC[C@H]1c1ncc(-c2ccc(-c3ccc(-c4cnc([C@@H]5CCCN5C(=O)C[C@H](NC(=O)OC)c5ccccc5)[nH]4)cc3)cc2)[nH]1)c1ccccc1", "note": "[cj-129, methyl ((1S)-3-((2S)-2-(5-(4′-(2-(1-((3S)-3-((methoxycarbonyl)amino)-3-phenylpropanoyl)-2-pyrrolidinyl)-1H-imidazol-5-yl)-4-biphenylyl)-1H-imidazol-2-yl)-1-pyrrolidinyl)-3-oxo-1-phenylpropyl)carbamate]", "values": [{"measurement": "EC50", "result": "0.001 to 0.999", "unit": "nM"}]}, {"smiles": "COC(=O)N[C@@H](Cc1ccccn1)C(=O)N1CCC[C@H]1c1ncc(-c2ccc(-c3ccc(-c4cnc([C@@H]5CCCN5C(=O)[C@H](Cc5ccccn5)NC(=O)OC)[nH]4)cc3)cc2)[nH]1", "note": "[cj-130, methyl ((1S)-2-((2S)-2-(5-(4′-(2-((2S)-1-((2S)-2-((methoxycarbonyl)amino)-3-(2-pyridinyl)propanoyl)-2-pyrrolidinyl)-1H-imidazol-5-yl)-4-biphenylyl)-1H-imidazol-2-yl)-1-pyrrolidinyl)-2-oxo-1-(2-pyridinylmethyl)ethyl)carbamate]", "values": [{"measurement": "EC50", "result": "0.001 to 0.999", "unit": "nM"}]}, {"smiles": "COC(=O)N[C@@H](Cc1c[nH]cn1)C(=O)N1CCC[C@H]1c1ncc(-c2ccc(-c3ccc(-c4cnc([C@@H]5CCCN5C(=O)[C@H](Cc5c[nH]cn5)NC(=O)OC)[nH]4)cc3)cc2)[nH]1", "note": "[cj-131, methyl ((1S)-2-((2S)-2-(5-(4′-(2-((2S)-1-((2S)-3-(1H-imidazol-4-yl)-2-((methoxycarbonyl)amino)propanoyl)-2-pyrrolidinyl)-1H-imidazol-5-yl)-4-biphenylyl)-1H-imidazol-2-yl)-1-pyrrolidinyl)-1-(1H-imidazol-4-ylmethyl)-2-oxoethyl)carbamate]", "values": [{"measurement": "EC50", "result": "1 to 99", "unit": "nM"}]}, {"smiles": "O=C1C[C@@H](C(=O)N2CCC[C@H]2c2ncc(-c3ccc(-c4ccc(-c5cnc([C@@H]6CCCN6C(=O)[C@@H]6CC(=O)NC(=O)N6)[nH]5)cc4)cc3)[nH]2)NC(=O)N1", "note": "[cj-132, (6S,6′S)-6,6′-(4,4′-biphenyldiylbis(1H-imidazole-5,2-diyl(2S)-2,1-pyrrolidinediylcarbonyl))didihydro-2,4(1H,3H)-pyrimidinedione]", "values": [{"measurement": "EC50", "result": "100 to 999", "unit": "nM"}]}, {"smiles": "CC(=O)NCCC(=O)N1CCC[C@H]1c1ncc(-c2ccc(-c3ccc(-c4cnc([C@@H]5CCCN5C(=O)CCNC(C)=O)[nH]4)cc3)cc2)[nH]1", "note": "[cj-134, N-(3-((2S)-2-(5-(4′-(2-((2S)-1-(3-acetamidopropanoyl)-2-pyrrolidinyl)-1H-imidazol-5-yl)-4-biphenylyl)-1H-imidazol-2-yl)-1-pyrrolidinyl)-3-oxopropyl)acetamide]", "values": [{"measurement": "EC50", "result": "1 to 99", "unit": "nM"}]}, {"smiles": "COC(=O)N[C@H](CCc1ccccc1)CC(=O)N1CCC[C@H]1c1ncc(-c2ccc(-c3ccc(-c4cnc([C@@H]5CCCN5C(=O)C[C@@H](CCc5ccccc5)NC(=O)OC)[nH]4)cc3)cc2)[nH]1", "note": "[cj-135, dimethyl (4,4′-biphenyldiylbis(1H-imidazole-5,2-diyl(2S)-2,1-pyrrolidinediyl((3R)-1-oxo-5-phenyl-1,3-pentanediyl)))biscarbamate]", "values": [{"measurement": "EC50", "result": "1 to 99", "unit": "nM"}]}, {"smiles": "COC(=O)N[C@H](CC(=O)N1CCC[C@H]1c1ncc(-c2ccc(-c3ccc(-c4cnc([C@@H]5CCCN5C(=O)C[C@H](Cc5cccs5)NC(=O)OC)[nH]4)cc3)cc2)[nH]1)Cc1cccs1", "note": "[cj-136, dimethyl (4,4′-biphenyldiylbis(1H-imidazole-5,2-diyl(2S)-2,1-pyrrolidinediyl((2R)-4-oxo-1-(2-thienyl)-4,2-butanediyl)))biscarbamate]", "values": [{"measurement": "EC50", "result": "0.001 to 0.999", "unit": "nM"}]}, {"smiles": "COC(=O)N[C@@H](CC(=O)N1CCC[C@H]1c1ncc(-c2ccc(-c3ccc(-c4cnc([C@@H]5CCCN5C(=O)C[C@@H](Cc5ccsc5)NC(=O)OC)[nH]4)cc3)cc2)[nH]1)Cc1ccsc1", "note": "[cj-137, dimethyl (4,4′-biphenyldiylbis(1H-imidazole-5,2-diyl(2S)-2,1-pyrrolidinediyl((2R)-4-oxo-1-(3-thienyl)-4,2-butanediyl)))biscarbamate]", "values": [{"measurement": "EC50", "result": "1 to 99", "unit": "nM"}]}, {"smiles": "COC(=O)N[C@@H](CC(=O)N1CCC[C@H]1c1ncc(-c2ccc(-c3ccc(-c4cnc([C@@H]5CCCN5C(=O)C[C@@H](Cc5cccs5)NC(=O)OC)[nH]4)cc3)cc2)[nH]1)Cc1cccs1", "note": "[cj-138, dimethyl (4,4′-biphenyldiylbis(1H-imidazole-5,2-diyl(2S)-2,1-pyrrolidinediyl((2S)-4-oxo-1-(2-thienyl)-4,2-butanediyl)))biscarbamate]", "values": [{"measurement": "EC50", "result": "1000 to 10000", "unit": "nM"}]}, {"smiles": "COC(=O)N[C@@H]1CCCC[C@H]1C(=O)N1CCC[C@H]1c1ncc(-c2ccc(-c3ccc(-c4cnc([C@@H]5CCCN5C(=O)[C@@H]5CCCC[C@H]5NC(=O)OC)[nH]4)cc3)cc2)[nH]1", "note": "[cj-139, dimethyl (4,4′-biphenyldiylbis(1H-imidazole-5,2-diyl(2S)-2,1-pyrrolidinediylcarbonyl(1R,2R)-2,1-cyclohexanediyl))biscarbamate]", "values": [{"measurement": "EC50", "result": "1 to 99", "unit": "nM"}]}, {"smiles": "CN(C)CC[C@H](NC(=O)OC(C)(C)C)C(=O)N1CCC[C@H]1c1ncc(-c2ccc(-c3ccc(-c4cnc([C@@H]5CCCN5C(=O)[C@H](CCN(C)C)NC(=O)OC(C)(C)C)[nH]4)cc3)cc2)[nH]1", "note": "[cj-140, di-tert-butyl (4,4′-biphenyldiylbis(1H-imidazole-5,2-diyl(2S)-2,1-pyrrolidinediyl((2S)-4-(dimethylamino)-1-oxo-1,2-butanediyl)))biscarbamate]", "values": [{"measurement": "EC50", "result": "100 to 999", "unit": "nM"}]}, {"smiles": "COC(=O)N[C@@H]1CCCC[C@@H]1C(=O)N1CCC[C@H]1c1ncc(-c2ccc(-c3ccc(-c4cnc([C@@H]5CCCN5C(=O)[C@H]5CCCC[C@H]5NC(=O)OC)[nH]4)cc3)cc2)[nH]1", "note": "[cj-141, dimethyl (4,4′-biphenyldiylbis(1H-imidazole-5,2-diyl(2S)-2,1-pyrrolidinediylcarbonyl(1R,2S)-2,1-cyclohexanediyl))biscarbamate]", "values": [{"measurement": "EC50", "result": "1000 to 10000", "unit": "nM"}]}, {"smiles": "CN(C)CC[C@H](N)C(=O)N1CCC[C@H]1c1ncc(-c2ccc(-c3ccc(-c4cnc([C@@H]5CCCN5C(=O)[C@@H](N)CCN(C)C)[nH]4)cc3)cc2)[nH]1", "note": "[cj-142, (3S,3′S)-4,4′-(4,4′-biphenyldiylbis(1H-imidazole-5,2-diyl(2S)-2,1-pyrrolidinediyl))bis(N~1~,N~1~-dimethyl-4-oxo-1,3-butanediamine)]", "values": [{"measurement": "EC50", "result": "1000 to 10000", "unit": "nM"}]}, {"smiles": "COC(=O)N[C@@H](CC(=O)N1CCC[C@H]1c1ncc(-c2ccc(-c3ccc(-c4cnc([C@@H]5CCCN5C(=O)C[C@@H](Cc5ccccc5)NC(=O)OC)[nH]4)cc3)cc2)[nH]1)Cc1ccccc1", "note": "[cj-143, dimethyl (4,4′-biphenyldiylbis(1H-imidazole-5,2-diyl(2S)-2,1-pyrrolidinediyl((2R)-4-oxo-1-phenyl-4,2-butanediyl)))biscarbamate]", "values": [{"measurement": "EC50", "result": "1000 to 10000", "unit": "nM"}]}, {"smiles": "COC(=O)N[C@@H]1CC[C@H](C(=O)N2CCC[C@H]2c2ncc(-c3ccc(-c4ccc(-c5cnc([C@@H]6CCCN6C(=O)[C@H]6CC[C@@H](NC(=O)OC)C6)[nH]5)cc4)cc3)[nH]2)C1", "note": "[cj-144, dimethyl (4,4′-biphenyldiylbis(1H-imidazole-5,2-diyl(2S)-2,1-pyrrolidinediylcarbonyl(1R,3S)-3,1-cyclopentanediyl))biscarbamate]", "values": [{"measurement": "EC50", "result": "0.001 to 0.999", "unit": "nM"}]}]}
